This note sets out measurements from patent US5808109A, “Compounds that inhibit complement and/or suppress immune activity” (T Cell Sciences, Inc., priority 1995, dated 1998).

Structures can show the parent of a compound that is named as a salt. Where two headings read alike, the source gives them in different places. Where only a bound is given, the exact number is not on record here.

Experiment [1] concerns human complement. Briefly: Inhibition of complement-mediated hemolysis, human serum, sensitized sheep erythrocytes. The experiment is classed as biochemical. On the procedure:
The ability to inhibit complement was also tested by assaying for inhibition of complement-mediated red cell lysis (hemolysis). The inhibition of hemolysis was determined as a function of compound concentration. The compounds to be tested were diluted in 0.1M Hepes buffer (0.15N NaCl, pH 7.4), and 50 μl were added to each well of a V-bottom microtiter plate. Human serum, used as the complement source, was diluted 1 to 500 in Hepes buffer, and 50 μl were added to each well. Next, commercially available sheep erythrocytes with anti-sheep antibody (Diamedix Cat. No. 789-001) were used as received and added at 100 μl/well to initiate the complement pathway leading to hemolysis. The plate was incubated for 60 minutes at 37° C. and then centrifuged at 500×g for 10 minutes. The supernatants were removed and placed in a flat-bottom microtiter plate. The extent of hemolysis was measured as a function of the sample absorbance at 410 nm. The maximal absorbance (corresponding to maximal hemolysis), Amax, was obtained from the absorbance value of an erythrocyte sample containing only human serum, AS, less the absorbance of a sample containing only the red cells, A0. Thus, Amax =AS -A0. The difference between the absorbance of an erythrocyte sample containing both human serum and inhibitive compound, and the absorbance of a cell sample containing inhibitive compound only, was defined as Asample. The inhibition, IH, was expressed as the fraction (Amax -Asample)/Amax, and IH50 was defined as the concentration of inhibitive compound required to produce a value of IH=1/2.
The 4 substituted spirobenzofuran compounds of example 7 and the disubstituted spirobenzofuran compounds of example 8 were tested for their capacity to inhibit complement-mediated lysis of sheep red blood cells (SRBC) as described in Section 6.6.2 supra with the modification that the human serum used as the complement source was diluted to 1 to 100 in Hepes buffer, instead of […]. The results of the hemolysis assays are shown in FIG. 8 and Tables XI and XII.

In experiment [2] the test system is human peripheral blood lymphocytes (PBL). Briefly: Inhibition of proliferation of peripheral blood lymphocytes, 3H-thymidine incorporation. The format is cell-based. As to conditions: Lymphocyte, Table IX, 72 h. On the procedure: The proliferation of human peripheral blood lymphocytes (PBL) in response to phytohemagglutinin (PHA, Well-come) or anti-CD3 monoclonal antibody (OKT-3, Ortho) was assessed by the incorporation of ^3 H-thymidine. Compound 11a was diluted in culture media to the desired concentrations, human PBL were added to a final concentration of 10^6 cells/ml, and then either PHA (Wellcome) or anti-CD3 (OKT3, Ortho) antibody (final concentration, […]) was added to initiate proliferation. The final volume per sample was 100 μl. The cells were incubated for 72 hours after stimulation, pulsed with 1 μCi ^3 H-thymidine per sample for 4 hours, harvested, and counted in a scintillation counter. […] Because cell viability was unaffected by the presence of 11a (see supra), the inhibition apparently was not due to cytotoxic effects.

Experiment [3] has as its system C3a production. The experiment can be described thus: Inhibition of C3a production in human serum (aggregated IgG, RIA). The experiment is classed as biochemical. As to conditions: human serum, concentration inhibiting C3a production 50% relative to control. On the procedure: (§1) The ability to inhibit complement was tested by assaying for specific inhibition of C3a and C5a production. For all experiments, a single human serum pool, to be used as a source of complement, was aliquoted and stored frozen at -70° C. Human IgG was heat-aggregated, aliquoted, and stored frozen at -70° C. For each experiment, serum aliquots were equilibrated at 37° C. with varying concentrations of the compounds tested. The classical complement pathway was initiated by the addition of aggregated human IgG. Control samples containing no IgG were always included. After a fixed reaction time of 10 minutes (determined in an earlier time-course study to provide a convenient time interval during which the production of C5a or C3a is nearly complete, i.e., greater than 90%), the levels of the released complement peptides (C5a or C3a) were determined by radioimmunoassay using commercially available radioimmunoassay (RIA) kits (C5a RIA, UpJohn Cat. No. 3250-02; C3a RIA, UpJohn Cat. No. 3245-01; C5a RIA, Amersham Cat. No. RPA.520; C3a RIA, Amersham RPA.518).
(§2) Since a competitive immunoassay was used, complement peptide (C5a and C3a) concentrations varied inversely with the counts. The Counts Bound (CB) for a sample was defined as the total counts (in counts per minute, cpm) measured in the pellet minus the counts measured in a nonspecific binding (NSB) control. The NSB control was a sample containing only tracer peptide (^125 I-labelled) and second precipitating antiserum; it contained no C5a- or C3a-specific antiserum.
(§3) The y-axis in FIG. 2 represents the fraction inhibition. The fraction inhibition is equal to the Counts Bound (CB) for a "sample," less the CB in the "sample with no added compound," divided by the CB for the "no IgG control" less the CB in the "sample with no added compound." [formula]
(§4) FIG. 2 is representative of the data plots obtained from the assays described above.

Experiment [4] concerns C5a production. Briefly: Inhibition of C5a production in human serum (aggregated IgG, RIA). The experiment is classed as biochemical. As to conditions: concentration inhibiting C5a production 50% relative to control. The method, then:
as §1, §2, §3, §4

The mark [5] stands for this setting: Table XII, human serum diluted 1 to 100, read-out: IH50 Mean.
[6] abbreviates: Table VII, human serum, read-out: IHO50.
Where [7] appears, read: PHA stimulation, read-out: IP50 PHA-stimulated PBL.
[8] abbreviates: anti-CD3 (OKT-3) stimulation, read-out: IP50 OKT-3-stimulated PBL.
Setting [9] is: Table XI, human serum diluted 1 to 100, read-out: IH50 Mean.

Regarding `O=C(O)c1cc(Oc2ccccc2)c2c(c1)OC1(CCCCC1)C2` [Compound 55c, 6-CARBOXYL-4-PHENOXYSPIRO[BENZOFURAN-2(3H)-CYCLOHEXANE]], the “effectiveness in inhibiting complement-mediated hemolysis compared with K76COOH” value in experiment [1] is “more effective”. The IC50 in experiment [1] (setting [5]) is 280 µM.

On to `O=C(O)c1ccc(O)c2c1OC1(CCCCC1)C2` [Compound 14a], for which the IC50 in experiment [1] (setting [6]) worked out at 3000 µM.

For `CC1=CCC(C2(C)Cc3c(O)ccc(C(=O)O)c3O2)CC1` (single isomer, unassigned; (-)) [(-)-23a], the IC50 in experiment [1] (setting [6]) is 2400 µM; in experiment [2] (setting [7]), 2800 µM; in experiment [2] (setting [8]), 2000 µM.

`COc1ccc(C(=O)O)c(O)c1CC1=CCCCC1` [Compound 12a, 3-(1'-CYCLOHEXENYL)METHYL-2-HYDROXY-4-METHOXYBENZOIC ACID]: the IC50 in experiment [1] (setting [6]) was determined as 2100 µM; in experiment [3], 13000 µM; in experiment [4] it was 8000 µM.

With `COc1cc(C(=O)O)cc2c1CC1(CCCCC1)O2` [Compound 30a], the IC50 in experiment [1] (setting [6]) stood at 530 µM.

Turning to `COc1ccc(C(=O)O)c2c1CC(C)(C1CC=C(C)CC1)O2` (single isomer, unassigned; (-)) [(-)-20a], the IC50 in experiment [1] (setting [6]) came to 380 µM; in experiment [3], 11000 µM; in experiment [4], 6000 µM.

On to `Nc1ccc(Oc2cc(C(=O)O)cc3c2CC2(CCCCC2)O3)cc1` [Compound 55h, 4p-aminophenoxy-carboxyspiro[benzofuran2(3H)-cyclohexane], for which the “effectiveness in inhibiting complement-mediated hemolysis compared with K76COOH” value in experiment [1] is reported as “more effective”. For the same molecule, the IC50 in experiment [1] (setting [5]) stood at 320 µM.

Regarding `COc1cc(C=O)c(C(=O)O)c2c1CC1(CCCCC1)O2` [Compound 62, 7-CARBOXY-6-FORMYL-4-METHOXY PIRO[BENXOFURAN-2 (DH)-CYCLOHEXANE], the IC50 in experiment [1] (setting [9]) is 1670 µM.

`COc1ccc(C(=O)O)c2c1CC(C)(C1CC=C(C)CC1)O2` (single isomer, unassigned; (+)) [(+)-20a]: the IC50 in experiment [1] (setting [6]) is 680 µM; in experiment [3], greater than 14000 µM; in experiment [4], 8000 µM; in experiment [2] (setting [7]), 2100 µM; in experiment [2] (setting [8]), 1700 µM.

As to `O=C(O)c1cc(Oc2ccc([N+](=O)[O-])cc2)c2c(c1)OC1(CCCCC1)C2` [Compound 55e, 6-CARBOXYL-4-P-NITROPHENOXYSPIRO [BENZOFURAN-2(3H)-CYCLOHEXANE]], the “effectiveness in inhibiting complement-mediated hemolysis compared with K76COOH” value in experiment [1] is recorded as “more effective”. Besides, the IC50 in experiment [1] (setting [5]) is 305 µM.

With `CCCCOc1cc(C(=O)O)cc2c1CC1(CCCCC1)O2` [Compound 55b, 4-N-BUTYLOXY-6-CARBOXYLSPIRO[BENZOFURAN-2(3H)-CYCLOHEXANE]], the IC50 in experiment [1] (setting [5]) was found to be 430 µM.

Turning to `O=C(O)c1cc(OCCO)c2c(c1)OC1(CCCCC1)C2` [Compound 55d, 6-CARBOXYL-4-(2'-HYDROXYETHYLOXYSPIRO[BENZOFURAN-2(3H)-CYCLOHEXANE]], the IC50 in experiment [1] (setting [5]) is greater than 2800 µM.

`O=C(O)c1cc(OCc2ccccc2)c2c(c1)OC1(CCCCC1)C2` [Compound 55a, 4-BENZYLOXY-6-CARBOXYLSPIRO[BENZOFURAN-2(3H)-CYCLOHEXANE]]: the IC50 in experiment [1] (setting [5]) stood at 2530 µM.

Turning to `CCOc1cc(C(=O)O)cc2c1CC1(CCCCC1)O2` [Compound 44b, 6-CARBOXYLATE-4-ETHOXY-SPIRO [BENZOFURAN-2(3H)-CYCLOHEXANE] SODIUM SALT], the IC50 in experiment [1] (setting [5]) is 580 µM.

Turning to `COc1cc(C(=O)O)cc(O)c1CC1=CCCCC1` [Compound 15a], the values for the IC50 in experiment [1] (setting [6]), in experiment [2] (setting [7]) and in experiment [2] (setting [8]) were 820 µM, 700 µM and 400 µM, respectively.

Regarding `COc1ccc(C=O)c(O)c1CC1=CCCCC1` [Compound 12b, 3-(1'-CYCLOHEXENYL)METHYL-2-HYDROXY-4-METHOXYBENZALDEHYDE], the IC50 in experiment [3] is 18000 µM; in experiment [4] it was 9000 µM.

`O=C(O)c1ccc(Oc2cc(C(=O)O)cc3c2CC2(CCCCC2)O3)cc1` [Compound 55i, 6-CARBOXYL-4-P-CARBOXYLPHENOXYSPIRO[BENZOFURAN-2(3H)-CYCLOHEXANE]]: the IC50 in experiment [1] (setting [5]) was determined as 1450 µM.

Take `CC1=CCC(C2(C)Cc3c(O)ccc(C(=O)O)c3O2)CC1` (single isomer, unassigned; (+)) [(+)-23a]: the IC50 was 2100 µM in experiment [1] (setting [6]), greater than 14000 µM in experiment [3] and greater than 14000 µM in experiment [4].

`O=C(O)c1ccc2c(c1)OC1(CCCCC1)C2` [Compound 55g, 6-CARBOXYLSPIRO[BENZOFURAN-2(3H)-CYCLOHEXANE]]: the IC50 in experiment [1] (setting [5]) was 2320 µM.

As to `O=C(O)c1cc(O)c2c(c1)OC1(CCCCC1)C2` [Compound 31a], the IC50 in experiment [1] (setting [6]) and in experiment [1] (setting [5]) was 1450 µM in each case.

With `COc1cc(C(=O)O)c(C(=O)O)c2c1CC1(CCCCC1)O2` [Compound 66, 6,7-DICARBOXYL-4-METHOXYSPIRO [BENZOFURAN-2(3H)-CYCLOHEXANE]], the IC50 in experiment [1] (setting [9]) was 800 µM.
